Reference: publication PMC7156458, “Synthetic biology based construction of biological activity-related library of fungal decalin-containing diterpenoid pyrones” (Nature Communications, 2020)

Target: Aβ42 (Homo sapiens, UniProt P05067)
Assay: Th-T (thioflavin-T) assay of Aβ42 aggregation
Assay type: biochemical

Chain of Aβ42 (P05067 672-713): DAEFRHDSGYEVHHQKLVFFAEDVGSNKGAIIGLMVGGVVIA

## C=C1CCC2C(C)(CCC=C(C)C)C(O)CCC2(C)C1Cc1c(OC)oc(CO)c(C(=O)OC)c1=O (stereo not drawn) [Compound 13]
Column suffix _20, reading M101
  Fig. 7a Th-T reading, mean of three wells: 1.039
Column suffix _20, reading M102
  Fig. 7a Th-T reading, mean of three wells: 1.036
Column suffix _20, reading M103
  Fig. 7a Th-T reading, mean of three wells: 1.04
Column suffix _20, reading M104
  Fig. 7a Th-T reading, mean of three wells: 1.043
Column suffix _20, reading M105
  Fig. 7a Th-T reading, mean of three wells: 1.05
Column suffix _20, reading M106
  Fig. 7a Th-T reading, mean of three wells: 1.043
Column suffix _50, measurement M19
  Th-T fluorescence, mean of three wells (Fig. 7a): 0.2105
Column suffix _50, measurement M20
  Th-T fluorescence, mean of three wells (Fig. 7a): 0.229
Column suffix _50, measurement M21
  Th-T fluorescence, mean of three wells (Fig. 7a): 0.2537
Column suffix _50, measurement M22
  Th-T fluorescence, mean of three wells (Fig. 7a): 0.2749
Column suffix _50, measurement M23
  Th-T fluorescence, mean of three wells (Fig. 7a): 0.2968
Column suffix _50, measurement M24
  Th-T fluorescence, mean of three wells (Fig. 7a): 0.3154
Column suffix _50, measurement M25
  Th-T fluorescence, mean of three wells (Fig. 7a): 0.3353
Column suffix _50, measurement M26
  Th-T fluorescence, mean of three wells (Fig. 7a): 0.3518
Column suffix _50, measurement M27
  Th-T fluorescence, mean of three wells (Fig. 7a): 0.3638
Column suffix _50, measurement M28
  Th-T fluorescence, mean of three wells (Fig. 7a): 0.3753
Column suffix _50, measurement M29
  Th-T fluorescence, mean of three wells (Fig. 7a): 0.3846
Column suffix _50, reading M1
  Th-T assay signal, mean of three wells (Fig. 7a): 0.5109
Column suffix _50, reading M2
  Th-T assay signal, mean of three wells (Fig. 7a): 0.3694
Column suffix _50, reading M3
  Th-T assay signal, mean of three wells (Fig. 7a): 0.2987
Column suffix _50, reading M4
  Th-T assay signal, mean of three wells (Fig. 7a): 0.2463
Column suffix _50, reading M5
  Th-T assay signal, mean of three wells (Fig. 7a): 0.2182
Column suffix _50, reading M6
  Th-T assay signal, mean of three wells (Fig. 7a): 0.2003
Column suffix _50, reading M7
  Th-T assay signal, mean of three wells (Fig. 7a): 0.1883
Column suffix _50, reading M8
  Th-T assay signal, mean of three wells (Fig. 7a): 0.1784
Column suffix _50, reading M9
  Th-T assay signal, mean of three wells (Fig. 7a): 0.17
Column suffix _50, reading M10
  Th-T assay signal, mean of three wells (Fig. 7a): 0.1689
Column suffix _50, reading M11
  Th-T assay signal, mean of three wells (Fig. 7a): 0.1659
Column suffix _50, reading M12
  Th-T assay signal, mean of three wells (Fig. 7a): 0.1664
Column suffix _50, reading M13
  Th-T assay signal, mean of three wells (Fig. 7a): 0.1648
Column suffix _50, reading M14
  Th-T assay signal, mean of three wells (Fig. 7a): 0.1691
Column suffix _50, reading M15
  Th-T assay signal, mean of three wells (Fig. 7a): 0.173
Column suffix _50, reading M16
  Th-T assay signal, mean of three wells (Fig. 7a): 0.1783
Column suffix _50, reading M17
  Th-T assay signal, mean of three wells (Fig. 7a): 0.1848
Column suffix _50, reading M18
  Th-T assay signal, mean of three wells (Fig. 7a): 0.1952
Column suffix _50, reading M85
  Fig. 7a Th-T reading, mean of three wells: 0.4685
Column suffix _50, reading M86
  Fig. 7a Th-T reading, mean of three wells: 0.4692
Column suffix _50, reading M87
  Fig. 7a Th-T reading, mean of three wells: 0.4718
Column suffix _50, reading M88
  Fig. 7a Th-T reading, mean of three wells: 0.4737
Column suffix _50, reading M89
  Fig. 7a Th-T reading, mean of three wells: 0.4759
Column suffix _50, reading M90
  Fig. 7a Th-T reading, mean of three wells: 0.4735
Column suffix _50, reading M91
  Fig. 7a Th-T reading, mean of three wells: 0.4713
Column suffix _50, reading M92
  Fig. 7a Th-T reading, mean of three wells: 0.4706
Column suffix _50, reading M93
  Fig. 7a Th-T reading, mean of three wells: 0.4737
Column suffix _50, reading M94
  Fig. 7a Th-T reading, mean of three wells: 0.4775
Column suffix _50, reading M95
  Fig. 7a Th-T reading, mean of three wells: 0.4772
Column suffix _50, reading M96
  Fig. 7a Th-T reading, mean of three wells: 0.4744
Column suffix _50, reading M97
  Fig. 7a Th-T reading, mean of three wells: 0.4689
Column suffix _50, reading M98
  Fig. 7a Th-T reading, mean of three wells: 0.4718
Column suffix _50, reading M99
  Fig. 7a Th-T reading, mean of three wells: 0.4742
Column suffix _50, reading M100
  Fig. 7a Th-T reading, mean of three wells: 0.4783
Column suffix _50, reading M101
  Fig. 7a Th-T reading, mean of three wells: 0.4707
Column suffix _50, reading M102
  Fig. 7a Th-T reading, mean of three wells: 0.471
Column suffix _50, reading M103
  Fig. 7a Th-T reading, mean of three wells: 0.4747
Column suffix _50, reading M104
  Fig. 7a Th-T reading, mean of three wells: 0.4762
Column suffix _50, reading M105
  Fig. 7a Th-T reading, mean of three wells: 0.477
Column suffix _50, reading M106
  Fig. 7a Th-T reading, mean of three wells: 0.4781
Compound at 10, reading M41 of time course
  Th-T fluorescence, mean of three wells: 1.211
Compound at 10, reading M42 of time course
  Th-T fluorescence, mean of three wells: 1.2969
Compound at 10, reading M43 of time course
  Th-T fluorescence, mean of three wells: 1.3329
Compound at 10, reading M44 of time course
  Th-T fluorescence, mean of three wells: 1.377
Compound at 10, reading M45 of time course
  Th-T fluorescence, mean of three wells: 1.405
Compound at 10, reading M46 of time course
  Th-T fluorescence, mean of three wells: 1.436
Compound at 10, reading M47 of time course
  Th-T fluorescence, mean of three wells: 1.47
Compound at 10, reading M48 of time course
  Th-T fluorescence, mean of three wells: 1.487
Compound at 10, reading M49 of time course
  Th-T fluorescence, mean of three wells: 1.496
Compound at 10, reading M50 of time course
  Th-T fluorescence, mean of three wells: 1.5062
Compound at 10, reading M51 of time course
  Th-T fluorescence, mean of three wells: 1.523
Compound at 10, reading M52 of time course
  Th-T fluorescence, mean of three wells: 1.537
Compound at 10, reading M53 of time course
  Th-T fluorescence, mean of three wells: 1.531
Compound at 10, reading M54 of time course
  Th-T fluorescence, mean of three wells: 1.542
Compound at 10, reading M55 of time course
  Th-T fluorescence, mean of three wells: 1.541
Compound at 10, reading M56 of time course
  Th-T fluorescence, mean of three wells: 1.545
Compound at 10, reading M57 of time course
  Th-T fluorescence, mean of three wells: 1.551
Compound at 10, reading M58 of time course
  Th-T fluorescence, mean of three wells: 1.551
Compound at 10, reading M59 of time course
  Th-T fluorescence, mean of three wells: 1.549
Compound at 10, reading M60 of time course
  Th-T fluorescence, mean of three wells: 1.541
Compound at 10, reading M61 of time course
  Th-T fluorescence, mean of three wells: 1.554
Compound at 10, reading M62 of time course
  Th-T fluorescence, mean of three wells: 1.56
Compound at 20, reading M41 of time course
  Th-T fluorescence, mean of three wells: 0.3859
Compound at 20, reading M42 of time course
  Th-T fluorescence, mean of three wells: 0.4228
Compound at 20, reading M43 of time course
  Th-T fluorescence, mean of three wells: 0.4511
Compound at 20, reading M44 of time course
  Th-T fluorescence, mean of three wells: 0.4829
Compound at 20, reading M45 of time course
  Th-T fluorescence, mean of three wells: 0.5147
Compound at 20, reading M46 of time course
  Th-T fluorescence, mean of three wells: 0.5564
Compound at 20, reading M47 of time course
  Th-T fluorescence, mean of three wells: 0.5957
Compound at 20, reading M48 of time course
  Th-T fluorescence, mean of three wells: 0.6248
Compound at 20, reading M49 of time course
  Th-T fluorescence, mean of three wells: 0.6553
Compound at 20, reading M50 of time course
  Th-T fluorescence, mean of three wells: 0.6948
Compound at 20, reading M51 of time course
  Th-T fluorescence, mean of three wells: 0.7326
Compound at 20, reading M52 of time course
  Th-T fluorescence, mean of three wells: 0.7726
Compound at 20, reading M53 of time course
  Th-T fluorescence, mean of three wells: 0.8004
Compound at 20, reading M54 of time course
  Th-T fluorescence, mean of three wells: 0.8343
Compound at 20, reading M55 of time course
  Th-T fluorescence, mean of three wells: 0.8641
Compound at 20, reading M56 of time course
  Th-T fluorescence, mean of three wells: 0.9063
Compound at 20, reading M57 of time course
  Th-T fluorescence, mean of three wells: 0.941
Compound at 20, reading M58 of time course
  Th-T fluorescence, mean of three wells: 0.9604
Compound at 20, reading M59 of time course
  Th-T fluorescence, mean of three wells: 0.9808
Compound at 20, reading M60 of time course
  Th-T fluorescence, mean of three wells: 0.9918
Compound at 20, reading M61 of time course
  Th-T fluorescence, mean of three wells: 1.018
Compound at 20, reading M62 of time course
  Th-T fluorescence, mean of three wells: 1.031
Compound at 50, reading M41 of time course
  Th-T fluorescence, mean of three wells: 0.4483
Compound at 50, reading M42 of time course
  Th-T fluorescence, mean of three wells: 0.4529
Compound at 50, reading M43 of time course
  Th-T fluorescence, mean of three wells: 0.452
Compound at 50, reading M44 of time course
  Th-T fluorescence, mean of three wells: 0.4555
Compound at 50, reading M45 of time course
  Th-T fluorescence, mean of three wells: 0.4534
Compound at 50, reading M46 of time course
  Th-T fluorescence, mean of three wells: 0.4569
Compound at 50, reading M47 of time course
  Th-T fluorescence, mean of three wells: 0.4654
Compound at 50, reading M48 of time course
  Th-T fluorescence, mean of three wells: 0.4625
Compound at 50, reading M49 of time course
  Th-T fluorescence, mean of three wells: 0.4637
Compound at 50, reading M50 of time course
  Th-T fluorescence, mean of three wells: 0.4613
Compound at 50, reading M51 of time course
  Th-T fluorescence, mean of three wells: 0.4698
Compound at 50, reading M52 of time course
  Th-T fluorescence, mean of three wells: 0.4696
Compound at 50, reading M53 of time course
  Th-T fluorescence, mean of three wells: 0.4691
